Experimental data: US10281463B2, “Methods of determining cellular phenotypes” (Technion Research & Development Foundation Limited, priority 2015, dated 2019)

Key:
[1] = system: E. coli; assay: Antibiotic susceptibility testing of E. coli growth on photonic microarrays diffraction grating (relative EOT shift over time); assay type: cell-based; conditions: for Cross comparison of antibiotic effect at the same concentration (type of effect): 5 μg/mL of respective antibiotic, E. coli, FIG. 17; for MIC: Escherichia coli, E. coli proliferation on photonic microarrays diffraction grating, antibiotic introduced at time 0 at increasing concentrations, read-out: MIC (minimal inhibitory concentration) observed from EOT growth curves
From the text: A SiPA placed in a flow-device having an inlet and an outlet. […] Fluid containing bacteria is introduced through the inlet. Light reflected from the top and bottom of the pores is collected by the optical setup. The phase delay between the incident and the reflected light beams is proportional to the depth (L) of the pores, and the refractive index of the medium filling the pores. The presence of bacterial cells in the pores increase the refractive index of the pores. Thus, the phase delay of the reflected light in the presence of the bacteria differs from the phase delay of the reflected light in the absence of the bacteria, so that analysis of the light collected by the optical setup can provide indication regarding the phenotype of the cells.
The FFT provides the value (2 nL), where L is the average depth of the pores and n is their refractive index. This quantity is also referred to as the Effective Optical Thickness (EOT). The measured shift in the EOT value is a function of the change in the refraction index of the pole: ΔEOT/EOT0=2(Δn/n0)L, where n0 is the refractive index of the pores before the introduction of the bacteria into the pores, Δn is the change in the refractive index as a result of the introduction of the cells into the compartments, and EOT0 is the EOT before introducing the cells into the compartments. Δn is thus correlated with the pore's volume fraction occupied by bacteria cells.
Types of optical kinetic profiles made by bacterial cells on photonic microarrays diffraction grating (e.g., SiPA) include, without limitation, • 1. Bacteria cells are seeded into the pores/structures. Full growth media is supplied to the cells until a growth curve is established. • a. An anti-proliferation drug (bacteriostatic/antibiotics) is added to the media (see FIG. 7) and the correlation of EOT growth curve and drug concentration is analyzed. The MIC (minimal inhibitory concentration) is determined when the EOT shift becomes null. • b. If the drug is later remove from the media (see FIG. 8), the cell growth may resume, if the drug effect is reversible. • c. If the drug is bactericidal or its bacteriostatic effect is irreversible, then the EOT curve will retract as dead cells disintegrate and exit the pores (see FIG. 8). • d. If the growth media if deficient with critical nutrient or factor, then EOT growth curve will decline in relation to the deficiency (see FIG. 9). • 2. Bacteria suspension is introduced to the photonic microarrays diffraction grating under constant flow conditions, in salt buffer solution. • a. If the suspension contains an anti-attachment drug/factor that will affect pore/structure colonization, then correlation of EOT curve and drug concentration can be analyzed (see FIG. 10). • b. Once a stable EOT curve is established, the bacteria suspension is replaced with clean buffer to challenge the bacteria adhesion. If cells are rinsed out of the pores, EOT plot will retract (see FIG. 11).

[2] = system: E. coli; assay: E. coli colonization of SiPA as a function of surface functionality (rate of EOT shift); assay type: cell-based; conditions: FIG. 12A
Method: The method includes the continuous or rapid serial monitoring of the light interferometry spectra obtained from a surface with reflective periodic topography (PRT), prior, during and following the controlled introduction of bacterial suspensions to it and/or addition of drugs/substances. Said interferometry spectra is analyzed (for example by fast Fourier transform) to reveal the rate of optical shift, e.g., the time-dependent alterations in the reflected light properties of said PRT, inflicted by the behavior of the cells (for example settling, adhering, migrating or proliferating).
Types of optical kinetic profiles made by bacterial cells on photonic microarrays diffraction grating (e.g., SiPA) include, without limitation, • 1. Bacteria cells are seeded into the pores/structures. Full growth media is supplied to the cells until a growth curve is established. • a. An anti-proliferation drug (bacteriostatic/antibiotics) is added to the media (see FIG. 7) and the correlation of EOT growth curve and drug concentration is analyzed. The MIC (minimal inhibitory concentration) is determined when the EOT shift becomes null. • b. […] If the suspension contains an anti-attachment drug/factor that will affect pore/structure colonization, then correlation of EOT curve and drug concentration can be analyzed (see FIG. 10). • b. […]

Molecule | Cross comparison of antibiotic effect at the same concentration (type of effect) [1] | MIC [1] | Effect of WGA ligand in the suspension on WGA-improved colonization ([2]; NAG incorporated in the E. coli suspension, WGA-coated SiPA) | Improvement of E. Coli colonization over neat SiO2 or albumin ([2]; SiPA coated with WGA)
O=C(O)c1cn(C2CC2)c2cc(N3CCNCC3)c(F)cc2c1=O [Ciprofloxacin] | bacteriostatic | 0.005 to 0.05 µg/mL | – | –
CC(=O)N[C@@H]1[C@@H](O)[C@H](O)[C@@H](CO)O[C@@H]1O [NAG] | – | – | completely eliminate this effect | –
Wheat-germ agglutinin [WGA] | – | – | – | 5 times
COc1cc(Cc2cnc(N)nc2N)cc(OC)c1OC [Trimethoprim] | below the MIC concentration | 5 to 50 µg/mL | – | –
CO/N=C(\C(=O)N[C@@H]1C(=O)N2C(C(=O)O)=C(CSc3nc(=O)c(=O)[nH]n3C)CS[C@H]12)c1csc(N)n1 [Ceftriaxone Sodium] | bactericidal | 0.005 to 0.05 µg/mL | – | –
